# Measurements published in patent US20210254272A1, “TEXTILES HAVING ANTIMICROBIAL PROPERTIES” (Livinguard AG, priority 2015, published 2021).
# Assay: Leaching test: 100 g fabric soaked in 10 liters stagnant distilled water, 3 days (72 hours)
# Type: physicochemical
# Conditions: for Leaching of active ingredients / Leaching Test-Leaching of active ingredients: pad process; for Leaching of active ingredients: cured 180° C. 2 min; for Leaching Test-Leaching of active ingredients: 2 min
# Description: The test procedure for leaching was as follows: 100 g (grams) of fabric as well as control fabrics were soaked in 10 liters of stagnant distilled water in a closed wide mouth jar. After 3 days (72 hours), the water samples were tested for leached substances as per standard analytical methods.
# The test procedure for leaching was as follows: 100 g (grams) of fabric as well as control fabrics were soaked in 10 liters of stagnant distilled water in a closed wide mouth jar. After 3 days (72 hours), the water samples were tested for leached substances as per standard analytical methods. A weight of 100 g fabric was chosen because in the preferred embodiment of the water filter as described further below, each filter comprises a strip of fabric with 210 g/m^2, 3 meters long and 0.16 meters wide, which corresponds to 100 g of fabric.
substance,measurement,setting,value
Silver,Leaching of active ingredients (in ppm),"exhaust 80° C., 60 min, dosage 1% o.w.f (test up to 5% o.w.f)",3.5 ppm
same,Leaching of active ingredients (in ppm),"exhaust 80° C., 60 min, dosage 2% o.w.f",19 ppm
same,Leaching of active ingredients (in ppm),"exhaust 80° C., 60 min, dosage 3% o.w.f",36 ppm
same,Leaching of active ingredients (in ppm),"exhaust 80° C., 60 min, dosage 4% o.w.f",41 ppm
same,Leaching of active ingredients (in ppm),"exhaust 80° C., 60 min, dosage 5% o.w.f",69 ppm
same,Leaching of active ingredients (in ppm),"exhaust 80 ° C., solution dosage 1% o.w.f, process time 10 min",50 ppm
same,Leaching of active ingredients (in ppm),"exhaust 80 ° C., solution dosage 1% o.w.f, process time 20 min",37 ppm
same,Leaching of active ingredients (in ppm),"exhaust 80 ° C., solution dosage 1% o.w.f, process time 30 min",28 ppm
same,Leaching of active ingredients (in ppm),"exhaust 80 ° C., solution dosage 1% o.w.f, process time 40 min",22 ppm
same,Leaching of active ingredients (in ppm),"exhaust 80 ° C., solution dosage 1% o.w.f, process time 50 min",19 ppm
same,Leaching of active ingredients (in ppm),"exhaust 80 ° C., solution dosage 1% o.w.f, process time 55 min",8 ppm
same,Leaching of active ingredients (in ppm),"exhaust 80 ° C., solution dosage 1% o.w.f, process time 60 min",4 ppm
same,Leaching of active ingredients (in ppm),"exhaust 80 ° C., solution dosage 1% o.w.f, process time 70 min",4 ppm
same,Leaching of active ingredients (in ppm),"exhaust 80 ° C., solution dosage 1% o.w.f, process time 80 min",3 ppm
same,Leaching of active ingredients (in ppm),"exhaust 80 ° C., solution dosage 1% o.w.f, process time 90 min",8 ppm
same,limit on the quantity of the agent that can be adhered to the textile in a non-leaching or substantially non-leaching manner,from Experimental examples I.1 and I.4,about 0.01 % o.w.f.
same,Leaching of active ingredients,mixture 1 gm/lit each,12 ppm
same,Leaching of active ingredients,"mixture 1 gm/lit each, after Washing",0.4 ppm
same,Leaching of active ingredients,mixture 5 gm/lit each,28 ppm
same,Leaching of active ingredients,"mixture 5 gm/lit each, after Washing",0.6 ppm
same,Leaching of active ingredients,mixture 10 gm/lit each,38 ppm
same,Leaching of active ingredients,"mixture 10 gm/lit each, after Washing",1.0 ppm
same,Leaching Test-Leaching of active ingredients,"single agent 5 gm/lit, curing 120° C.",9 ppm
same,Leaching Test-Leaching of active ingredients,"single agent 5 gm/lit, curing 140° C.",5 ppm
same,Leaching Test-Leaching of active ingredients,"single agent 5 gm/lit, curing 150° C.",3 ppm
same,Leaching Test-Leaching of active ingredients,"single agent 5 gm/lit, curing 160° C.",2 ppm
same,Leaching Test-Leaching of active ingredients,"single agent 5 gm/lit, curing 180° C.",1 ppm
same,Leaching Test-Leaching of active ingredients,"single agent 10 gm/lit, curing 120° C.",16 ppm
same,Leaching Test-Leaching of active ingredients,"single agent 10 gm/lit, curing 140° C.",15 ppm
same,Leaching Test-Leaching of active ingredients,"single agent 10 gm/lit, curing 150° C.",12 ppm
same,Leaching Test-Leaching of active ingredients,"single agent 10 gm/lit, curing 160° C.",9 ppm
same,Leaching Test-Leaching of active ingredients,"single agent 10 gm/lit, curing 180° C.",2 ppm
same,Leaching of active ingredient (in ppm),"solution dosage 0.10% o.w.f, exhaust temperature 40° C., process time 60 min",0 ppm
same,Leaching of active ingredient (in ppm),"solution dosage 0.10% o.w.f, exhaust temperature 60° C., process time 60 min",0 ppm
same,Leaching of active ingredient (in ppm),"solution dosage 0.10% o.w.f, exhaust temperature 65° C., process time 60 min",0 ppm
same,Leaching of active ingredient (in ppm),"solution dosage 0.10% o.w.f, exhaust temperature 70° C., process time 60 min",0 ppm
same,Leaching of active ingredient (in ppm),"solution dosage 0.10% o.w.f, exhaust temperature 75° C., process time 60 min",0 ppm
same,Leaching of active ingredient (in ppm),"solution dosage 0.10% o.w.f, exhaust temperature 80° C., process time 60 min",0 ppm
same,Leaching of active ingredient (in ppm),"solution dosage 0.10% o.w.f, exhaust temperature 85° C., process time 60 min",2 ppm
same,Leaching of active ingredient (in ppm),"solution dosage 0.10% o.w.f, exhaust temperature 90° C., process time 60 min",2 ppm
same,Leaching of active ingredient (in ppm),"solution dosage 0.10% o.w.f, exhaust temperature 95° C., process time 60 min",2 ppm
same,Leaching of active ingredient (in ppm),"solution dosage 0.20% o.w.f, exhaust temperature 40° C., process time 60 min",0 ppm
same,Leaching of active ingredient (in ppm),"solution dosage 0.20% o.w.f, exhaust temperature 60° C., process time 60 min",0 ppm
same,Leaching of active ingredient (in ppm),"solution dosage 0.20% o.w.f, exhaust temperature 65° C., process time 60 min",0 ppm
same,Leaching of active ingredient (in ppm),"solution dosage 0.20% o.w.f, exhaust temperature 70° C., process time 60 min",0 ppm
same,Leaching of active ingredient (in ppm),"solution dosage 0.20% o.w.f, exhaust temperature 75° C., process time 60 min",0 ppm
same,Leaching of active ingredient (in ppm),"solution dosage 0.20% o.w.f, exhaust temperature 80° C., process time 60 min",0 ppm
same,Leaching of active ingredient (in ppm),"solution dosage 0.20% o.w.f, exhaust temperature 85° C., process time 60 min",4 ppm
same,Leaching of active ingredient (in ppm),"solution dosage 0.20% o.w.f, exhaust temperature 90° C., process time 60 min",4 ppm
same,Leaching of active ingredient (in ppm),"solution dosage 0.20% o.w.f, exhaust temperature 95° C., process time 60 min",4 ppm
same,Leaching of active ingredient (in ppm),"solution dosage 0.50% o.w.f, exhaust temperature 40° C., process time 60 min",0 ppm
same,Leaching of active ingredient (in ppm),"solution dosage 0.50% o.w.f, exhaust temperature 60° C., process time 60 min",3 ppm
same,Leaching of active ingredient (in ppm),"solution dosage 0.50% o.w.f, exhaust temperature 65° C., process time 60 min",2 ppm
same,Leaching of active ingredient (in ppm),"solution dosage 0.50% o.w.f, exhaust temperature 70° C., process time 60 min",1 ppm
same,Leaching of active ingredient (in ppm),"solution dosage 0.50% o.w.f, exhaust temperature 75° C., process time 60 min",1 ppm
same,Leaching of active ingredient (in ppm),"solution dosage 0.50% o.w.f, exhaust temperature 80° C., process time 60 min",1 ppm
same,Leaching of active ingredient (in ppm),"solution dosage 0.50% o.w.f, exhaust temperature 85° C., process time 60 min",5 ppm
same,Leaching of active ingredient (in ppm),"solution dosage 0.50% o.w.f, exhaust temperature 90° C., process time 60 min",7 ppm
same,Leaching of active ingredient (in ppm),"solution dosage 0.50% o.w.f, exhaust temperature 95° C., process time 60 min",8 ppm
same,Leaching of active ingredient (in ppm),"solution dosage 0.80% o.w.f, exhaust temperature 40° C., process time 60 min",0 ppm
same,Leaching of active ingredient (in ppm),"solution dosage 0.80% o.w.f, exhaust temperature 60° C., process time 60 min",4 ppm
same,Leaching of active ingredient (in ppm),"solution dosage 0.80% o.w.f, exhaust temperature 65° C., process time 60 min",3 ppm
same,Leaching of active ingredient (in ppm),"solution dosage 0.80% o.w.f, exhaust temperature 70° C., process time 60 min",2 ppm
same,Leaching of active ingredient (in ppm),"solution dosage 0.80% o.w.f, exhaust temperature 75° C., process time 60 min",3 ppm
same,Leaching of active ingredient (in ppm),"solution dosage 0.80% o.w.f, exhaust temperature 80° C., process time 60 min",1 ppm
same,Leaching of active ingredient (in ppm),"solution dosage 0.80% o.w.f, exhaust temperature 85° C., process time 60 min",7 ppm
same,Leaching of active ingredient (in ppm),"solution dosage 0.80% o.w.f, exhaust temperature 90° C., process time 60 min",7 ppm
same,Leaching of active ingredient (in ppm),"solution dosage 0.80% o.w.f, exhaust temperature 95° C., process time 60 min",8 ppm
same,Leaching of active ingredient (in ppm),"solution dosage 1.00% o.w.f, exhaust temperature 40° C., process time 60 min",0 ppm
same,Leaching of active ingredient (in ppm),"solution dosage 1.00% o.w.f, exhaust temperature 60° C., process time 60 min",7 ppm
same,Leaching of active ingredient (in ppm),"solution dosage 1.00% o.w.f, exhaust temperature 65° C., process time 60 min",7 ppm
same,Leaching of active ingredient (in ppm),"solution dosage 1.00% o.w.f, exhaust temperature 70° C., process time 60 min",3 ppm
same,Leaching of active ingredient (in ppm),"solution dosage 1.00% o.w.f, exhaust temperature 75° C., process time 60 min",4 ppm
same,Leaching of active ingredient (in ppm),"solution dosage 1.00% o.w.f, exhaust temperature 80° C., process time 60 min",1 ppm
same,Leaching of active ingredient (in ppm),"solution dosage 1.00% o.w.f, exhaust temperature 85° C., process time 60 min",8 ppm
same,Leaching of active ingredient (in ppm),"solution dosage 1.00% o.w.f, exhaust temperature 90° C., process time 60 min",9 ppm
same,Leaching of active ingredient (in ppm),"solution dosage 1.00% o.w.f, exhaust temperature 95° C., process time 60 min",10 ppm
